In PubChem BioAssay AID2060899 (Molecular Pharmacology Branch, DTP, NCI, 2025):
pIC50: −log10 of the molar value.

Test system: 565726-208-R1-J5-PDC complex spheroids, growth inhibition
Experiment: Anticancer human tumor 565726-208-R1-J5-PDC patient-derived pancreatic adenocarcinoma cell line growth inhibition [RAS]
Details: for pIC50: curve of first compound; for viability, T/C: stronger effect = lower value
Excerpt: RAS pathway inhibitors in Combinations in Complex Spheroids
A high-throughput screen of multi-cell type tumor spheroids was designed to identify active combinations of RAS pathway inhibitors and targeted small molecules. Complex spheroids include a stromal component modeled by human endothelial cells (HUVEC) and fibroblasts modeled by human mesenchymal stem cells (MSCs). The concentration ranges selected for each drug and investigational agent were based upon clinically achievable concentrations if the clinical Cmax of the agent was known.
Compounds. The drugs and investigational agents: abemaciclib (NSC768073), cobimetinib (NSC768068), divarasib (GDC6063, NSC841802), docetaxel (NSC628503), GDC-1971 (RLY-1971, NSC841576), gemcitabine (NSC613327), inavolisib (NSC800729), ipatasertib (NSC767898), KB-0742 (NSC834161), MRTX-1133 (NSC836407), osimertinib (NSC779217), RMC-4630 (NSC839698), RMC-6236 (NSC851965), RMC-6291 (NSC852671), Ro-3306 (NSC812927), sapanisertib (NSC764658), SN-38 (NSC673596), staurosporine (NSC755774), SY5609 (NSC837396), and tovorafenib (DAY101, NSC766906), were obtained from the National Cancer Institute (NCI) Developmental Therapeutics Program Chemical Repository. The FDA-approved anticancer drug set is available from the NCI Developmental Therapeutics Program. […] The stock solutions were prepared in dimethyl sulfoxide (DMSO, Sigma-Aldrich, St. Louis, MO, cat. D2650) at 800-fold the tested concentration and stored at -70 degrees C prior to their use. All drugs and investigational agents were tested over a range starting from a high concentration at or near the clinical Cmax and decreasing in half-log increments. If the clinical Cmax for an agent had not been determined, the highest concentration tested was 10 microM.
Cell Culture. All cells were maintained in an incubator at 37 degrees C and 5% CO2 with 95% humidity. The PDC lines were cultured according to standard operating procedures established by the NCI PDMR. All PDCs were thawed and cultured in Matrigel-coated flasks prepared with a working solution of 1X Ham's F-12 nutrient mix, without supplementation (Invitrogen, Waltham, MA, cat. 11765054), 100 U/mL penicillin-streptomycin (Invitrogen, cat. 15140122), and 2.5% Matrigel (Corning Inc., Corning, NY, cat. 354248) for the first three passages. The 362531-283-R-J2-PDC and 782815-120-R-J1-PDC lines were cultured in 6C/Colon 1B media, which includes advanced DMEM/F-12 (Thermo Fisher Scientific, cat. 12634028), 10 mM HEPES (Thermo Fisher Scientific, cat. 15630080), 1X GlutaMAX supplement (Thermo Fisher Scientific, cat. 35050061), 0.1 mg/mL primocin (InvivoGen, San Diego, CA, cat. ant-pm-2), 10% defined fetal bovine serum, heat inactivated (HyClone Laboratories Inc., Logan, UT, cat. SH30070.03HI), 50% L-WRN conditioned media (ATCC, cat. CRL-3276), 1.25 mM N-Acetyl-L-cysteine (Sigma-Aldrich, cat. A9165), 10 mM nicotinamide (Sigma-Aldrich, cat. N0636), 1X B-27 supplement (Thermo Fisher Scientific, cat. 17504044), 1X N-2 supplement (Thermo Fisher Scientific, cat. 17502048), 50 ng/mL human EGF (Thermo Fisher Scientific, cat. PHG0311), and 10 microM Y-27632 dihydrochloride (Tocris Bioscience, cat. 1254). The K12877-001-R-J1-PDC line was cultured in 6I media, which includes all 6C/Colon 1B media plus 10 ng/mL human FGF-10 (PeproTech, cat. 100-26), 1 ng/mL human FGF-2 (PeproTech, cat. 100-18B), 1 µM prostaglandin E2 (Tocris Bioscience, cat. 2296), […] hydrocortisone (Sigma-Aldrich, cat. H4001), and […] bovine insulin (Sigma-Aldrich, cat. I6634). The K86415-001-R-J1-PDC line was cultured in 6D media, which includes all 6C/Colon 1B media components minus the L-WRN conditioned media. The 485176-168-R4-J1-PDC was cultured in PANC media, which includes all 6C/Colon 1B media plus 100 ng/mL human FGF-10 (PeproTech, cat. 100-26), 500 nM SB-431542 (Selleckchem, cat. S1067), and 10 nM gastrin (Tocris Bioscience, cat. 3006). […]
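Note: spheroids exposed to compounds for seven days before readout.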
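Throughout, for viability, T/C: 100% = DMSO vehicle control viability.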

SMILES: C=CC(=O)Nc1cc(Nc2nccc(-c3cn(C)c4ccccc34)n2)c(OC)cc1N(C)CCN(C)C + CCn1c(-c2cccnc2C(C)OC)c2c3cc(ccc31)N1CCOC(CC(NC(=O)C(C(C)C)N(C)C(=O)C3(F)CCN(C(=O)C#CC(C)(C)N(C)C)CC3)C(=O)N3CCCC(N3)C(=O)OCC(C)(C)C2)C1
- pIC50 (second compound 0.000949 µM): < 6.00
- pIC50 (second compound 0.003 µM): < 6.00
- pIC50 (second compound 0.00949 µM): < 6.00
- pIC50 (second compound 0.03 µM): < 6.00
- pIC50 (second compound 0.0949 µM): < 6.00
- pIC50 (second compound 0.3 µM): < 6.00
- viability, T/C (second compound 0.000949 µM, first compound 0.00316 µM): 98.1%
- viability, T/C (second compound 0.000949 µM, first compound 0.01 µM): 87.7%
- viability, T/C (second compound 0.000949 µM, first compound 0.0316 µM): 93.8%
- viability, T/C (second compound 0.000949 µM, first compound 0.1 µM): 79.7%
- viability, T/C (second compound 0.000949 µM, first compound 0.316 µM): 78.8%
- viability, T/C (second compound 0.000949 µM, first compound 1 µM): 65.2%
- viability, T/C (second compound 0.003 µM, first compound 0.00316 µM): 93.4%
- viability, T/C (second compound 0.003 µM, first compound 0.01 µM): 91%
- viability, T/C (second compound 0.003 µM, first compound 0.0316 µM): 89%
- viability, T/C (second compound 0.003 µM, first compound 0.1 µM): 77.1%
- viability, T/C (second compound 0.003 µM, first compound 0.316 µM): 76.4%
- viability, T/C (second compound 0.003 µM, first compound 1 µM): 57%
- viability, T/C (second compound 0.00949 µM, first compound 0.00316 µM): 99.1%
- viability, T/C (second compound 0.00949 µM, first compound 0.01 µM): 91.6%
- viability, T/C (second compound 0.00949 µM, first compound 0.0316 µM): 83.3%
- viability, T/C (second compound 0.00949 µM, first compound 0.1 µM): 73.3%
- viability, T/C (second compound 0.00949 µM, first compound 0.316 µM): 78%
- viability, T/C (second compound 0.00949 µM, first compound 1 µM): 55.8%
- viability, T/C (second compound 0.03 µM, first compound 0.00316 µM): 105%
- viability, T/C (second compound 0.03 µM, first compound 0.01 µM): 107%
- viability, T/C (second compound 0.03 µM, first compound 0.0316 µM): 94%
- viability, T/C (second compound 0.03 µM, first compound 0.1 µM): 81.9%
- viability, T/C (second compound 0.03 µM, first compound 0.316 µM): 83.3%
- viability, T/C (second compound 0.03 µM, first compound 1 µM): 62.2%
- viability, T/C (second compound 0.0949 µM, first compound 0.00316 µM): 96%
- viability, T/C (second compound 0.0949 µM, first compound 0.01 µM): 87%
- viability, T/C (second compound 0.0949 µM, first compound 0.0316 µM): 92.2%
- viability, T/C (second compound 0.0949 µM, first compound 0.1 µM): 78.8%
- viability, T/C (second compound 0.0949 µM, first compound 0.316 µM): 81.6%
- viability, T/C (second compound 0.0949 µM, first compound 1 µM): 60.2%
- viability, T/C (second compound 0.3 µM, first compound 0.00316 µM): 88.1%
- viability, T/C (second compound 0.3 µM, first compound 0.01 µM): 78.3%
- viability, T/C (second compound 0.3 µM, first compound 0.0316 µM): 86.5%
- viability, T/C (second compound 0.3 µM, first compound 0.1 µM): 72.7%
- viability, T/C (second compound 0.3 µM, first compound 0.316 µM): 70.8%
- viability, T/C (second compound 0.3 µM, first compound 1 µM): 55.7%
